Measured values published in patent EP0189629A1, “Method of treatment of viral diseases in plants utilizing ribavirin” (VIRATEK, INC., priority 1985, dated 1986).
Each block holds one molecule with its values, some of them ahead of it.

Tests used:
[1] = Solubility; format: physicochemical; conditions: for solubility in other solvents: alcohol (5-15% by volume) and water, DMF (5-25%) and water, DMSO (5-25%) and water, DMSO alone
From the text: Another potential use of Ribavirin is to eliminate viruses or maintain plant tissues in a virus-free state during routine propagation techniques that are presently being developed. One example is the use of encapsulated somatic embryos to propagate somatic tissues to prevent sexual variation or the need for more extensive plant breeding. Ribavirin may be especially useful in maintaining virus-free plants by its application to somatic embryos. Certain plants can be propagated asexually precluding genetic changes in progeny which might otherwise occur by sexual propagation from seed. Treatment of somatic embryos with Ribavirin prior to encapsulation will preserve plant progeny in a virus--free state. The compound could also be used in combination with newly developed plant genetic engineering procedures where the Ribavirin could be incorporated into normal propagation procedures. […] The compounds are also soluble in solutions of alcohol (5-15% by volume) and water, dimethylformamide (DMF) (5-25%) and water, dimethyl sulfoxide (DMSO) (5-25%) and water and dimethyl sulfoxide alone.

[2] = tested on: TMV; assay: TMV multiplication in leaf cells, treatment soon after inoculation; format: cell-based; conditions: treatment began soon after inoculation
[3] = tested on: TMV; assay: TMV multiplication in inoculated unorganized callus cells; format: cell-based; conditions: callus cells inoculated with TMV, single agent
[4] = tested on: lily symptomless virus (LSV) and tulip breaking virus (TBV); assay: Lily meristem culture, virus testing by ELISA, immuno-diffusion drop test and electron microscopy; format: cell-based; conditions: 40.0 uM Ribavirin
Experimental: Other experiments were performed with Lilium Lon- oifiorum "Arai" which has been described as difficult to obtain free of virus, and with Lilium"Enchantment", both containing lily symptomless virus (LSV) and tulip breaking virus (TBV). Meristems, induced on media with or without Ribavirin, were isolated and subsequently cultured on a medium without Ribavirin. […] Leaf samples of the plants were tested for the presence of LSV and TBV by means of ELISA, the immuno-diffusion drop test and electron microscopy.

[5] = tested on: plant virus groups; assay: Spectrum of activity against plant virus groups and plant viral diseases
[6] = tested on: potato virus Y; assay: In vitro culture of meristems and other explants of potato virus Y-infected potato; format: cell-based
Experimental: (§1) Although the proportion of healthy plants obtained by this technique is usually high, it requires complex media and the rate of regrowth of meristematic explants is low. Menstems were cultured on MURASHIGE and SKOOG medium- supplanted with vitamin 85, and with growth substances. Other explants (shoots, fragment of shoots, stem--fragments) were grown on MURASHIGE and SKOOG medium without addition of growth substances. The presence of potato virus Y in plant material was controlled before and after in vitro culture, by biological indexing on tobacco test plants, or by serology (ELISA). Results thus obtained confirmed the elimination of potato virus Y from infected plants by meristem culture. […] Cymbidium protocorms infected with odontoglossum ring spot virus were placed for proliferation on liquid KNUDSON C medium containing 0, 10, 25 or 40 ppm of Ribavirin.

[7] = tested on: protocorms of healthy Cymbidium; assay: Growth of healthy Cymbidium protocorms on medium containing Ribavirin; format: cell-based
Experimental: Meristems or protocorms of Cymbidium were cultured on liquid or solid (0.7% agar) KNUDSON C medium, as modified for orchids by MOREL.

[8] = tested on: orchid strain of tobacco mosaic virus (TMV-0); assay: Cymbidium orchid tissue culture, virus titers by electron micrography and serological test; format: cell-based; conditions: 30, 100, 300 and 1,000 ppm Ribavirin; 200 ppm DMSO in all treatments
Experimental: Ribavirin concentrations from 30 to 1,000 ppm have been included in tissue culture media in which orchids are being cloned, and used to drench and spray whole orchid plants in a controlled way. Virus titers were determined by transmission electron micrography and ELIZA serological tests. In order to enhance penetration of Ribavirin, 200 ppm of Dimethylsulfoxide - (DMSO) was included in all treatments including controls.

[9] = tested on: Lilium; assay: Lily meristem culture, meristem formation and bulb growth; format: cell-based
[10] = tested on: Odontoglossum ring spot virus (ORSV); assay: ORSV-infected Cymbidium meristem/protocorm culture, ELISA; format: cell-based
Experimental: Odontoglossum ring spot virus (ORSV) - infected Cymbidium mother plants have been regenerated in the presence of Ribavirin. Meristems or protocorms of Cymbidium were cultured on liquid or solid (0.7% agar) KNUDSON C medium, as modified for orchids by MOREL.
as §1

[11] = tested on: TMV; assay: TMV-infected tobacco callus growth and shoot regeneration on medium containing chemical; format: cell-based

solubility in other solvents [1]: also soluble
solubility in water [1]: soluble in water
SMILES: CC(=O)OC[C@H]1O[C@@H](n2cnc(C(N)=O)n2)[C@H](OC(C)=O)[C@@H]1OC(C)=O [2,3,5--triacetyl]

solubility in other solvents [1]: also soluble
solubility in water [1]: soluble in water
SMILES: CCCC(=O)OC[C@H]1O[C@@H](n2cnc(C(N)=O)n2)[C@H](O)[C@@H]1O [5'-butyryl]

SMILES: Nc1ncnc2c1ncn2[C@@H]1O[C@H](CO)[C@@H](O)[C@@H]1O [Adenine Arabinoside]
multiplication of TMV in leaf cells [2]: effectively inhibited
multiplication of TMV in unorganized callus cells [3]: neither inhibited

SMILES: NC(=O)c1ncn([C@@H]2O[C@H](CO)[C@@H](O)[C@H]2O)n1 [Ribavirin, 1-β-D-ribofuranosyl-1,2,4-triazole-3-carboxamide]
percentage of plants infected with LSV and/or TBV ([4]; L. "Enchantment"): the effect is less clear
percentage of plants infected with LSV and/or TBV ([4]; L. Lonaiflorum "Arai"): reduced
solubility in other solvents [1]: also soluble
solubility in water [1]: soluble in water
effectiveness against plant viral diseases ([5]; crops and viruses listed in the 2nd table and the 3rd table): effective
activity against plant virus groups ([5]; potexviruses, potyviruses, closteroviruses, tymoviruses, carlaviruses, cucumoviruses, ilarviruses, tombusviruses, tomato spotted wilt virus, alfalfa mosaic virus): active
sensitivity of plant virus groups to Ribavirin ([5]; tobamovirus and bromovirus groups): only slightly sensitive
regeneration rate in meristem culture ([6]; 10, 25 and 50 ppm, meristems of potato virus Y-infected potato): enhanced the regeneration rate
number of virus-free plants obtained after in vitro culture ([6]; 25 or 50 ppm, shoots, shoot pieces and stem-fragments, three to four weeks): significantly enhanced
phytotoxicity in meristem culture ([6]; virus-inhibiting concentrations, meristem culture of potato virus Y-infected potato): phytotoxicity at virus-inhibiting concentrations
multiplication of TMV in leaf cells [2]: effectively inhibited
growth of healthy Cymbidium protocorms ([7]; 50 ppm, after four weeks of culture): became necrotic
growth of healthy Cymbidium protocorms ([7]; media containing 0, 10 or 25 ppm): grew well
virus status of new growth of Cymbidium tissue cultures [8]: developed virus-free new growth
multiplication of TMV in unorganized callus cells [3]: neither inhibited
bulb growth ([9]; 400.0 uM): severely reduced
number of adventitiously formed meristems and average bulb weight ([9]; concentration range 0.0-40.0 uM): not significantly influenced
multiplication of ORSV in Cymbidium protocorms ([10]; 10 ppm, liquid KNUDSON C medium, three monthly subcultures): did not inhibit
virus concentration in Cymbidium protocorms ([10]; 25 ppm, liquid KNUDSON C medium, monthly subcultures): decreased progressively
ORSV detection by ELISA test ([10]; from the sixth subculture, regeneration in the presence of Ribavirin): no longer detectible
TMV in newly developed tobacco callus or shoots ([11]; callus from TMV-infected pith tissue grown on medium with Ribavirin): still contained TMV
tobacco callus growth and differentiation ([11]; concentration twice that required to inhibit TMV multiplication in leaf disks): grew and differentiated
